According to patent publication US9663496B2, “AMPK-activating heterocyclic compounds and methods for using the same” (Rigel Pharmaceuticals, Inc., priority 2010, dated 2017):

Biological target: AMPK
Experiment: AMPK activation, enzyme-linked immunosorbent assay
Type: biochemical
Settings: EC50 for AMPK activation, ELISA
Description: Compounds were assayed for their ability to activate AMPK using an enzyme-linked immunosorbent assay. Reagents and procedures for measuring AMPK activation are well known and kits for AMPK activation assays are commercially available.

N#Cc1ccc(CN2CCC(NC(=O)c3ccc(C(=O)N4CCN(CC5CCCCC5)CC4)cn3)CC2)cc1 [Compound 95, N-(1-(4-cyanobenzyl)piperidin-4-yl)-5-(4-(cyclohexylmethyl)piperazine-1-carbonyl)picolinamide]
EC50: < 500 nM

N#Cc1ccc(CN2CCC(NC(=O)c3ccc(C(=O)N4CC[C@H](Oc5ccc(C#N)cc5)[C@@H](F)C4)cn3)CC2)cc1 (relative stereo) [Compound 279, N-(1-(4-cyanobenzyl)piperidin-4-yl)-5-((trans)-4-(4-cyanophenoxy)-3-fluoropiperidine-1-carbonyl)picolinamide]
EC50: < 500 nM

Cc1nc(Oc2ccc(C#N)cc2)ccc1NC(=O)c1ccc(C(=O)N2CCC(C(=O)c3ccc(F)cc3F)CC2)nc1 [Compound 479, N-(6-(4-cyanophenoxy)-2-methylpyridin-3-yl)-6-(4-(2,4-difluorobenzoyl)piperidine-1-carbonyl)nicotinamide]
EC50: < 500 nM

N#Cc1ccc(CN2CCC(NC(=O)c3ccc(Nc4ccc(-c5ccccc5)cc4)cn3)CC2)cc1 [Compound 109, 5-(biphenyl-4-ylamino)-N-(1-(4-cyanobenzyl)piperidin-4-yl)picolinamide]
EC50: 5000 to 10000 nM

CS(=O)(=O)c1ccc(OC2CCN(C(=O)c3ccc(C(=O)NC4CCN(Cc5ccc(C#N)cc5)CC4)nc3)CC2)cc1 [Compound 227, N-(1-(4-cyanobenzyl)piperidin-4-yl)-5-(4-(4-(methylsulfonyl)phenoxy)piperidine-1-carbonyl)picolinamide]
EC50: < 500 nM

N#Cc1ccc(CN2CCC(NC(=O)c3ccc(C(=O)N4CC[C@@H](Oc5ccc(F)cc5)C4)cn3)CC2)cc1 [Compound 278, (R)—N-(1-(4-cyanobenzyl)piperidin-4-yl)-5-(3-(4-fluorophenoxy)pyrrolidine-1-carbonyl)picolinamide]
EC50: < 500 nM

N#Cc1ccc(OC2CCN(C(=O)c3ccc(C(=O)N[C@H]4CC[C@@H](Oc5ccc(F)cc5)CC4)cn3)CC2)cc1 [Compound 324, 6-(4-(4-cyanophenoxy)piperidine-1-carbonyl)-N-((cis)-4-(4-fluorophenoxy)cyclohexyl)nicotinamide]
EC50: < 500 nM

CN1CCN(c2ccc(C(=O)C3CCN(C(=O)c4ccc(C(=O)NC5CCN(Cc6ccc(OC(F)(F)F)cc6)CC5)cn4)CC3)cc2)CC1 [Compound 244, 6-(4-(4-(4-methylpiperazin-1-yl)benzoyl)piperidine-1-carbonyl)-N-(1-(4-(trifluoromethoxy)benzyl)piperidin-4-yl)nicotinamide]
EC50: 5000 to 10000 nM

CC(=O)c1ccc(Oc2ccc(NC(=O)c3ccc(C(=O)N4CCC(S(=O)(=O)c5ccc(F)cc5)CC4)nc3)cn2)cc1 [Compound 473, N-(6-(4-acetylphenoxy)pyridin-3-yl)-6-(4-(4-fluorophenylsulfonyl)piperidine-1-carbonyl)nicotinamide]
EC50: 1000 to 5000 nM

CC(=O)c1ccc(OC2CCN(C(=O)c3ccc(C(=O)Nc4ccc(Oc5ccc(F)cc5)nc4)cn3)CC2)cc1 [Compound 395, 6-(4-(4-acetylphenoxy)piperidine-1-carbonyl)-N-(6-(4-fluorophenoxy)pyridin-3-yl)nicotinamide]
EC50: < 500 nM

CS(=O)(=O)c1ccc(OC2CCN(C(=O)c3ccc(C(=O)NC4CCN(Cc5ccc(C#N)cc5)CC4)cn3)CC2)cc1 [Compound 397, N-(1-(4-cyanobenzyl)piperidin-4-yl)-6-(4-(4-(methylsulfonyl)phenoxy)piperidine-1-carbonyl)nicotinamide]
EC50: < 500 nM

COc1ccc(OC2CCN(C(=O)c3ccc(C(=O)NC4CCN(Cc5ccc(C#N)cc5)CC4)cn3)CC2)c(NC(=O)CCOCCOCCOCCOCCNC(=O)CCCC[C@@H]2SC[C@@H]3NC(=O)N[C@@H]32)c1 [Compound 394, N-(1-(4-cyanobenzyl)piperidin-4-yl)-6-(4-(4-methoxy-2-(17-oxo-21-((3aS,4S,6aR)-2-oxohexahydro-1H-thieno[3,4-d]imidazol-4-yl)-4,7,10,13-tetraoxa-16-azahenicosanamido)phenoxy)piperidine-1-carbonyl)nicotinamide]
EC50: > 10000 nM

N#Cc1ccc(OC2CCN(C(=O)c3ccc(C(=O)NCCOc4ccc(F)cc4)nc3)CC2)cc1 [Compound 306, 5-(4-(4-cyanophenoxy)piperidine-1-carbonyl)-N-(2-(4-fluorophenoxy)ethyl)picolinamide]
EC50: < 500 nM

O=C(N[C@@H]1CCN(Cc2ccc(Cl)cc2)C[C@@H]1F)c1ccc(C(=O)N2CCN(Cc3ccc(F)cc3)CC2)cn1 (relative stereo) [Compound 127, N-(cis-1-(4-chlorobenzyl)-3-fluoropiperidin-4-yl)-5-(4-(4-fluorobenzyl)piperazine-1-carbonyl)picolinamide]
EC50: < 500 nM

CS(=O)(=O)c1ccc(OC2CCN(C(=O)c3ccc(C(=O)NC4CCN(Cc5ccc(N6CCCC6)cc5)CC4)nc3)CC2)cc1 [Compound 208, 5-(4-(4-(methylsulfonyl)phenoxy)piperidine-1-carbonyl)-N-(1-(4-(pyrrolidin-1-yl)benzyl)piperidin-4-yl)picolinamide]
EC50: < 500 nM

CN(C)c1ccc(OC2CCN(C(=O)c3ccc(C(=O)NC4CCN(Cc5ccc(C#N)cc5)CC4)cn3)CC2)cc1 [Compound 370, N-(1-(4-cyanobenzyl)piperidin-4-yl)-6-(4-(4-(dimethylamino)phenoxy)piperidine-1-carbonyl)nicotinamide]
EC50: < 500 nM

O=C(Nc1ccc(Oc2ccc(F)cc2)nc1)c1ccc(C(=O)N2CCC(Oc3ccc(F)cc3)CC2)cn1 [Compound 273, 5-(4-(4-fluorophenoxy)piperidine-1-carbonyl)-N-(6-(4-fluorophenoxy)pyridin-3-yl)picolinamide]
EC50: < 500 nM

O=C(NC1CCN(Cc2ccc(OC(F)(F)F)cc2)CC1)c1ccc(C(=O)N2CCC(Oc3ccc(C(=O)C4CC4)cc3)CC2)nc1 [Compound 455, 6-(4-(4-(cyclopropanecarbonyl)phenoxy)piperidine-1-carbonyl)-N-(1-(4-(trifluoromethoxy)benzyl)piperidin-4-yl)nicotinamide]
EC50: < 500 nM

N#Cc1ccc(CN2CCC(NC(=O)c3ccc(C(=O)N4CCN(C(=O)c5ccccc5)CC4)cn3)CC2)cc1 [Compound 80, 5-(4-benzoylpiperazine-1-carbonyl)-N-(1-(4-cyanobenzyl)piperidin-4-yl)picolinamide]
EC50: 1000 to 5000 nM

O=C(Nc1ccc(Br)cc1)c1ccc(C(=O)N2CCN(Cc3ccc(F)cc3)CC2)cn1 [Compound 28, N-(4-bromophenyl)-5-(4-(4-fluorobenzyl)piperazine-1-carbonyl)picolinamide]
EC50: 500 to 1000 nM

N#Cc1ccc(CN2CCC(NC(=O)c3ccc(C(=O)N4CCN(c5ccc(C(=O)C(F)(F)F)cc5)CC4)cn3)CC2)cc1 [Compound 263, N-(1-(4-cyanobenzyl)piperidin-4-yl)-5-(4-(4-(2,2,2-trifluoroacetyl)phenyl)piperazine-1-carbonyl)picolinamide]
EC50: < 500 nM

N#Cc1ccc(CN2CCC(NC(=O)c3ccc(C(=O)N4CCC(Cc5ccc(F)cc5)CC4)cn3)CC2)cc1 [Compound 130, N-(1-(4-cyanobenzyl)piperidin-4-yl)-5-(4-(4-fluorobenzyl)piperidine-1-carbonyl)picolinamide]
EC50: < 500 nM

O=C(c1cccc(C(=O)N2CCN(Cc3ccc(F)cc3)CC2)n1)N1CCN(CCc2ccccc2)CC1 [Compound 93, (4-(4-fluorobenzyl)piperazin-1-yl)(6-(4-phenethylpiperazine-1-carbonyl)pyridin-2-yl)methanone]
EC50: > 10000 nM

COc1ccc(N2CCC(Nc3ccc(C(=O)NC4CCN(Cc5ccc(C#N)cc5)CC4)nc3)CC2)cc1 [Compound 275, N-(1-(4-cyanobenzyl)piperidin-4-yl)-5-(1-(4-methoxyphenyl)piperidin-4-ylamino)picolinamide]
EC50: < 500 nM

COc1ccc(C(=O)C2CCN(C(=O)c3ccc(C(=O)N[C@H]4CCN(Cc5ccc(C#N)cc5)C[C@@H]4F)cn3)CC2)cc1 [Compound 453, N-((3S,4S)-1-(4-cyanobenzyl)-3-fluoropiperidin-4-yl)-6-(4-(4-methoxybenzoyl)piperidine-1-carbonyl)nicotinamide]
EC50: < 500 nM

CCOC(=O)C(c1ccccc1)N1CCC(NC(=O)c2ccc(C(=O)N3CCN(Cc4ccc(F)cc4)CC3)cn2)CC1 (centres unmarked) [Compound 98, ethyl 2-(4-(5-(4-(4-fluorobenzyl)piperazine-1-carbonyl)picolinamido)piperidin-1-yl)-2-phenylacetate]
EC50: 1000 to 5000 nM

N#Cc1ccc(CN2CCC(NC(=O)c3ccc(C(=O)N4CCN(C(=O)c5ccc(C(=O)NC6CCN(Cc7ccc(C#N)cc7)CC6)nc5)CC4)cn3)CC2)cc1 [Compound 75, 5,5′-(piperazine-1,4-diylbis(oxomethylene)) bis(N-(1-(4-cyanobenzyl)piperidin-4-yl)picolinamide)]
EC50: 1000 to 5000 nM

COc1cccc(CC2CCN(C(=O)c3ccc(C(=O)NC4CCN(Cc5ccc(C#N)cc5)CC4)nc3)CC2)c1 [Compound 147, N-(1-(4-cyanobenzyl)piperidin-4-yl)-5-(4-(3-methoxybenzyl)piperidine-1-carbonyl)picolinamide]
EC50: < 500 nM

O=C(NC1CCN(Cc2ccc(F)cc2)CC1)c1ccc(C(=O)N2CCC(Oc3ccc(F)cc3)CC2)cn1 [Compound 180, N-(1-(4-fluorobenzyl)piperidin-4-yl)-5-(4-(4-fluorophenoxy)piperidine-1-carbonyl)picolinamide]
EC50: < 500 nM

N#Cc1ccc(CN2CCC(NC(=O)c3ccc(N4CCC(Oc5ccc(C(F)(F)F)cc5)CC4)cn3)CC2)cc1 [Compound 301, N-(1-(4-cyanobenzyl)piperidin-4-yl)-5-(4-(4-(trifluoromethyl)phenoxy)piperidin-1-yl)picolinamide]
EC50: < 500 nM

CS(=O)(=O)c1ccc(C(=O)C2CCN(C(=O)c3ccc(C(=O)NC4CCN(Cc5ccc(C#N)cc5)CC4)nc3)CC2)cc1 [Compound 228, N-(1-(4-cyanobenzyl)piperidin-4-yl)-5-(4-(4-(methylsulfonyl)benzoyl)piperidine-1-carbonyl)picolinamide]
EC50: < 500 nM

N#Cc1ccc(CN2CCC(C(=O)Nc3ccc(C(=O)N4CCC(Oc5ccc(F)cc5)CC4)cn3)CC2)cc1 [Compound 173, 1-(4-cyanobenzyl)-N-(5-(4-(4-fluorophenoxy)piperidine-1-carbonyl)pyridin-2-yl)piperidine-4-carboxamide]
EC50: < 500 nM
